Experimental data as given in patent US8148070B2, “Genetic polymorphisms associated with coronary events and drug response, methods of detection and uses thereof” (Celera Corporation, priority 2007, dated 2012).

Experiments:
PROVE-IT patients = test: PROVE-IT (PROVE IT-TIMI 22) genetic study: high-dose atorvastatin vs standard-dose pravastatin, death or major cardiovascular events by KIF6 719Arg carrier status; format: in vivo, human
Procedure: Patients were followed for 18 to 36 months, with an average follow-up of 24 months.
Of the 1,724 patients who met the criteria listed above, 1344 (78.0%) were male. […] This study was approved by institutional review boards of the Brigham and Women's Hospital and all participating centers.
KIF6 genotypes were determined using allele—specific real-time PCR as previously described. Cox proportional hazard models (Wald tests) were used to assess the effect of atorvastatin-treatment on incident CHD in the KIF6 719Arg carriers and noncarriers. Continuous variables tested were age, baseline LDL-C, and baseline HDL-C levels. Categorical variables tested were smoking (current versus non-current), hypertension, and baseline diabetes. All reported p values are two-sided.

[1] = test system: elderly men and women (ages 70-82); test: PROSPER trial: pravastatin vs placebo, coronary events in elderly by KIF6 719Arg carrier status; format: in vivo, human; conditions: for hazard ratio (coronary events, pravastatin vs placebo) / Hazard ratio: PROSPER; for hazard ratio (coronary events, pravastatin vs placebo): ages 70-82; for event (number of patients) / no event (number of patients): pravastatin arm of PROSPER; for Hazard ratio: pravastatin vs placebo, risk of CHD
Procedure: In this analysis, the KIF6 Trp719Arg polymorphism was analyzed in samples from the “Prospective Study of Pravastatin in the Elderly at Risk” (PROSPER) trial (PROSPER is described further in Shepherd et al., Lancet. 2002 Nov. 23; 360(9346):1623-30). PROSPER was both a secondary and primary trial of elderly men and women (ages 70-82). […] Since an interaction has been observed between KIF6 carrier status and prior vascular events, groups with and without prior vascular events were genotyped separately.
5752 patients were genotyped within the PROSPER trial, and Cox proportional hazards models were used to investigate (1) the risk for coronary events in 719Arg carriers compared with noncarriers in a placebo arm, and (2) the effect of statin therapy according to 719Arg carrier status in a pravastatin arm.
To assess the effect of pravastatin, risk estimates were used to compare the pravastatin arm with the placebo arm in subgroups defined by genotypes.

[2] = carrier (minor homozygote + heterozygote)

CC[C@H](C)C(=O)O[C@H]1C[C@H](O)C=C2C=C[C@H](C)[C@H](CC[C@@H](O)C[C@@H](O)CC(=O)O)[C@H]21 [Pravastatin, pravastatin] was tested, and the “On-trial CHD” value (PROVE-IT patients; ArgArg + ArgTrp, totals 509 (atorvastatin), 502 (pravastatin)) was 123 Number of patients, the “On-trial CHD” value (PROVE-IT patients; TrpTrp, totals 359 (atorvastatin), 352 (pravastatin)) was 80 Number of patients and the “hazard ratio (coronary events, pravastatin vs placebo)” value ([1]; 719Arg carriers with prior vascular disease) was 0.67. The “hazard ratio (coronary events, pravastatin vs placebo)” value ([1]; noncarriers with prior vascular disease) was 0.92, the “event (number of patients)” value [1, 2] was 103 and the “no event (number of patients)” value [1, 2] was 657. For the same compound, the “event (number of patients)” value ([1]; rs20455 genotype AA) was 80, the “no event (number of patients)” value ([1]; rs20455 genotype AA) was 456 and the “event (number of patients)” value ([1]; rs20455 genotype AG) was 85. For the same compound, the “no event (number of patients)” value ([1]; rs20455 genotype AG) was 501, the “event (number of patients)” value ([1]; rs20455 genotype GG) was 18 and the “no event (number of patients)” value ([1]; rs20455 genotype GG) was 156. For the same compound, the Hazard ratio ([1]; KIF6 719Arg carrier, Model 1 unadjusted) was 0.67, the Hazard ratio ([1]; KIF6 719Arg carrier, Model 2 adjusted for age, sex and smoking status) was 0.67 and the Hazard ratio ([1]; KIF6 719Arg carrier, Model 3 adjusted for age, sex, smoking status, history of hypertension, LDL, HDL and history of diabetes) was 0.67. It also gave a Hazard ratio ([1]; KIF6 rs20455 heterozygote, Model 1 unadjusted) of 0.67, a Hazard ratio ([1]; KIF6 rs20455 heterozygote, Model 2 adjusted for age, sex and smoking status) of 0.67 and a Hazard ratio ([1]; KIF6 rs20455 heterozygote, Model 3 adjusted for age, sex, smoking status, history of hypertension, LDL, HDL and history of diabetes) of 0.68. For the same compound, the Hazard ratio ([1]; KIF6 rs20455 major homozygote (noncarrier), Model 1 unadjusted) was 0.93, the Hazard ratio ([1]; KIF6 rs20455 major homozygote (noncarrier), Model 2 adjusted for age, sex and smoking status) was 0.92 and the Hazard ratio ([1]; KIF6 rs20455 major homozygote (noncarrier), Model 3 adjusted for age, sex, smoking status, history of hypertension, LDL, HDL and history of diabetes) was 0.92. The Hazard ratio ([1]; KIF6 rs20455 minor homozygote, Model 1 unadjusted) was 0.65, the Hazard ratio ([1]; KIF6 rs20455 minor homozygote, Model 2 adjusted for age, sex and smoking status) was 0.65 and the Hazard ratio ([1]; KIF6 rs20455 minor homozygote, Model 3 adjusted for age, sex, smoking status, history of hypertension, LDL, HDL and history of diabetes) was 0.63.
